Experiment [1] has as its system ERK1/2 phosphorylation, CHO-B2 cells. Briefly: ERK1/2 phosphorylation in CHO-B2 cells (HTRF). To be noted: high basal background. It is filed as cell-based, Chinese hamster ovary cells, human cloned B2 receptor. A general note: TR-FRET usually uses a lanthanide donor and a delayed reading to cut background.
Experiment [2] has as its system CHO-B2 cells. Format: cell-based, Chinese hamster ovary cells, human cloned B2 receptor. To be noted: 1 h at 37 °C; enzyme immunoassay; mean ± SEM, 3 to 6 experiments; read-out: PGE2 production in CHO-B2 cells (EC50).
Protocol: (§2) This involved stimulating h-CM cells and CHO-B2 cells with various concentrations of test peptides and measuring the release of various PGs in the extracellular medium. The concentration-dependent effects of these peptides on total PGs, and specifically PGE2, PGF2α, and PGD2 release, were studied. Cells were grown as a monolayer in a 24-well plate (precoated with fibronectin) to confluence and subsequently serum-starved overnight before the experiment. On the day of the experiment, just before the drug was added, the wells were aspirated completely, and 990 µl basal medium and 10 µl 100× series of concentrations of the different peptide agonists were added to achieve the desired final concentrations of each compound (e.g., 0.1 nM to 10 µM). […] At the end of the incubation period, the cellular supernatants were collected and stored at −80 °C or used immediately to determine the PG content. Cell supernatants were tested for total PG levels and sub-species of PGs (PGE2, PGF2α, and PGD2) using specific competitive enzyme immunoassays (Cayman Chemical Co., Ann Arbor, MI) as directed in the manufacturer’s recommended protocols using the supplied standards and reagents. The limits of detection for various PGs were as follows: total PGs=29 pg/ml; PGE2=15 pg/ml; PGF2α=9 pg/ml; PGD2=200 pg/ml.
The subject of experiment [3] is CHO-B2 cells. Format: cell-based, Chinese hamster ovary cells, human cloned B2 receptor. The conditions noted are these: 1 h at 37 °C; enzyme immunoassay; mean ± SEM, 3 to 6 experiments; read-out: PGF2α production in CHO-B2 cells (EC50).
Protocol: (§3) Measurement of prostaglandins in human ciliary muscle and Chinese hamster ovary cells expressing B2 receptors
as §2
The test system of a further experiment is h-CM cells. Briefly: Nitric oxide production in h-CM cells. Format: cell-based, human. To be noted: BK 0.1 and 1 µM; data not shown. From the text:
Measurement of nitric oxide production
In certain cell types, BK elevates intracellular levels of nitric oxide (NO), which in turn causes the generation of cGMP via the soluble guanylate cyclase in the cell cytosol. In the present studies, we determined whether the B2 receptors in h-CM cells were coupled to NO production using a specific kit (Promega Corp., Madison, WI) and according to the manufacturer’s instructions.

Another experiment deals with h-TM cells. To be noted: ref [23]; cited from earlier work.
The subject of another experiment is rabbit eyes. Put plainly: IOP after intravitreal injection in Dutch-Belt rabbits. It is filed as in vivo, pigmented Dutch-Belt rabbit. The conditions noted are these: for IOP reduction, rabbit: 50 µg intravitreal, n=7–10. On the procedure:
Intraocular pressure measurements
To extend our in vitro observations of the high density of B2-receptor protein in human and cynomolgus monkey ciliary muscle and non-pigmented ciliary epithelium, we studied the effects of topically administered BK (100 µg total dose in a sterile vehicle) on IOP in normotensive and TM-ablated hypertensive eyes of these animals. […] However, since we could not subject the monkeys to additional studies involving BK delivery to the eye interior, it was decided that intravitreal (ivt) injection of BK into pigmented Dutch-Belt rabbits would be worth pursuing. Thus, after light corneal anesthesia with 0.1% proparacaine, basal IOPs were determined in up to 10 Dutch-Belt rabbits using an Alcon Pneumotonometer (Alcon Laboratories Inc., Fort Worth, TX). After this time, 50 µg of BK (B2 agonist) or Des-Arg^9-BK (B1 agonist) in 20 µl of sterile basal salt solution (BSS plus), or just BSS plus vehicle, was injected ivt into one eye of each rabbit and the IOP determined at various times thereafter. Authors confirm adherence to the ARVO Statement for Animals in Ophthalmic and Vision Research, with all animal studies conducted according the guidelines for Animal Care and Use at Alcon Research Ltd.
Figure 8 Time-course of changes in rabbit intraocular pressure (IOP) with different kinin peptide agonists. Three groups of Dutch-Belt rabbits (n=7–10/group) were injected ivt in one eye with either vehicle or 50 µg of BK or 50 µg of Des-Arg^9-BK dissolved in the vehicle and the IOP monitored over time. Data are mean±SEM.

In another experiment the test system is primary h-CM cells. Format: cell-based, human.
Experiment [4] deals with certain endothelial and neuronal cells. To be noted: ref [3],[28]; cited from earlier work.
A further experiment has as its system pro-MMPs, h-CM cells. Put plainly: pro-MMP release from h-CM cells (several pro-MMPs stated together). Format: cell-based, human. The conditions noted are these: BK 0.1–1 µM at 24 h. Here is the method: Measurement of extracellular signal-regulated kinase-1/2 phosphorylation and pro-matrix metalloproteinase production
The release of pro-MMP-1/2/3 in the extracellular medium of h-CM cells exposed to kinin’s, for 24 h at 37 °C [29, 30] was studied next. Thus, h-CM cells isolated from multiple human donor eyes were cultured as described above and then serum-starved for 24 h prior to the addition of any test compound. Cells were incubated with the vehicle or test compound for 24 hours at 37 °C after which the medium was collected and concentrated ten-fold using Centricon concentrators (Millipore Corp., Bellireca, MA). Equal volumes of this concentrate were loaded on 10% SDS-polyacrylamide gels (SDS-PAGE) and the proteins separated and transferred to nitrocellulose membranes. The membranes were then blocked with 5% non-fat dry milk (Bio-Rad Laboratories, Hercules, CA) followed by incubation with antibodies to pro-MMP-1, pro-MMP-2, or pro-MMP-3 for 12 hours at 4 °C with gentle shaking. After washing, these membranes were incubated with appropriate secondary antibodies (HRP-conjugated; dilution 1:3000) for 1 hour at 20 °C. […] For chemiluminescent detection, the membranes were treated with enhanced chemiluminescent reagent (Amersham Pharmacia, Piscataway, NJ) and the signal was quantified using a Bio-Rad Versadoc imaging system (Bio-Rad Laboratories, Hercules, CA).

Another experiment concerns B2 subtype. The arrangement: method as in PMID 1313585. To be noted: ref [1]; cited from earlier work.
The conditions of experiment [5]: cited from earlier work. From the text: (§1) Despite the presence of the kallikrein/kinin enzyme and receptor system in the h-CM tissue and cells, with B2-receptor immunoreactivity also found in the cynomolgus monkey CM (Figure 2B), the physiologic roles of BK and its receptors in this tissue and cells remain to be elucidated. Indeed, there are conflicting reports in the literature regarding the functions and involvement of BK in modulating IOP in various animal models.

The test system of experiment [6] is isolated perfused bovine eyes. The conditions noted are these: ref [16]; cited from earlier work.
From the text: as §1

For another experiment, the system named is albino rabbits. To be noted: topical dosing, ref [8]; cited from earlier work.
From the text: as §1

Experiment [7] relates to isolated perfused human and bovine anterior eye segments. To be noted: ref [15]; cited from earlier work.
From the text: as §1

The subject of another experiment is cynomolgus monkey eyes. The conditions noted are these: intracameral, ref [12], cited from earlier work.
From the text: as §1

Where [8] appears, read: intracameral injection, ref [10],[14].

Several values for one entry are separate records, joined by “and”; a condition that tells them apart may be missing. Identical values can stand only once. Entries after “also recorded” stand apart in the source; their conditions may differ. Like-named read-outs stand apart in the source and are kept apart here.

Protocol for primary h-CM cells: as §3, §2

As for H-RPPGFSPFR-OH [BK], the “ERK1/2 phosphorylation response in CHO-B2 cells” value in experiment [1] is “did not obtain a meaningful response”. The EC50 (usually the concentration giving half of the maximal effect) is 0.0328 ± 0.00903 nM in the experiment with CHO-B2 cells [2]; 0.0321 ± 0.0122 nM in the experiment on CHO-B2 cells [3]; 8.6 ± 2.4 nM with primary h-CM cells (1 h at 37 °C, enzyme immunoassay, mean ± SEM, 3 to 6 experiments, read-out: Total PGs production in h-CM cells (EC50)). Further, the “Effect on NO levels” value in the experiment with h-CM cells is reported as “failed to have any effect on NO levels; also recorded: failed to do so in h-CM cells”. Further, the “ERK1/2 phosphorylation in h-TM cells” value with h-TM cells is on record as “stimulate ERK1/2 phosphorylation”. The “IOP reduction, rabbit” value in the experiment on rabbit eyes (5 h post-injection) was 22.9±7.3%; in the experiment on rabbit eyes (8 h post-injection (maximal)) it was 37.0±5.6%. In addition, in the experiment on rabbit eyes (BK 50 µg intravitreal, 5–8 h post injection), the “Effect on rabbit IOP” value was “time-dependent reduction in IOP; also recorded: robust lowering of the IOP”. Besides, the “BK-induced total PGs production/secretion, h-CM cells” value in the experiment with primary h-CM cells (BK 100 nM (0.1 µM) to 10 µM, n=8) is 393.3 ± 24.2 pg/mL and 393.3 pg/mL. In addition, in the experiment on primary h-CM cells (BK 1 µM, Figure 6A, single experiment), the “Total PG secretion above basal levels” value is listed as “substantially increased the PGs secreted above the basal levels”. Further, the “Production of NO and cGMP” value in [4] was “can elicit production of NO and cGMP”. Also, the “Increase in promatrix metalloproteinases-1–3 release” value in the experiment with pro-MMPs, h-CM cells is given as 1.4–3.1 fold. Moreover, the “Affinity for B2 subtype” value in the experiment with B2 subtype is “high affinity”. For the same substance, the IOP effect result is “raised IOP” in experiment [5] (setting [8]); “lowered IOP” in experiment [5] (intravenous infusion, ref [9]); “lowered IOP” with albino rabbits. The Pupil effect result in experiment [5] (setting [8]) was “caused intense miosis”. For the same substance, in experiment [5] (ref [11]), the “Aqueous humor inflow and outflow” value is “increased aqueous humor inflow and outflow”. For the same substance, in [6], the Outflow entry is “apparent increase in outflow”. Moreover, in experiment [7], the Outflow facility entry is on record as “decreased outflow facility”. In addition, the Aqueous humor outflow entry in the experiment with cynomolgus monkey eyes (no ciliary muscle retrodisplacement) is recorded as “no effect on aqueous humor outflow”; with cynomolgus monkey eyes (with ciliary muscle retrodisplacement) it was “decreased outflow”.

Values taken from PMC3693772, “Protein expression, biochemical pharmacology of signal transduction, and relation to intraocular pressure modulation by bradykinin B2 receptors in ciliary muscle” (Molecular Vision, 2013).
